Measurements published in patent US11524004B2, “Analogs of proxisome proliferator activated receptor (PPAR) agonists and methods of using the same” (The University of Toledo, priority 2013, dated 2022).

How the values were obtained:
[1] = test system: Human bone marrow-derived mesenchymal stem cells (MSCs); assay: MSC osteogenesis assay: Alizarin Red S osteoblast mineralization, with concomitant assessment of fat cell formation; format: cell-based; conditions: for osteogenic formation from MSCs: MSCs in osteogenic medium, test agent at 1, 2, 4, 10 or 20 μM every 2nd day for 21 days, Alizarin Red S; for profile of fat (AD) versus osteogenic (OS) effects during dose progression (bone should predominate): dose progression 1-20 μM
Method: Human bone marrow-derived mesenchymal stem cells (MSCs) were taken through 2-3 passages and distributed across a 24 well plate at a density of 1×10^5 cells/cm^2. The plates were cultured in α-MEM with 20% FBS for 1 day at 37° C. On day 2 the medium was switched to osteogenic media (Stem X-Vivo, R&D System, Minneapolis, Minn.) containing 10% FBS plus 50 μg/ml ascorbic acid and 3 mM β-glycerol-phosphate. MSCs were cultured in the osteogenic medium without (vehicle negative control) or with test agents at 1, 2, 4, 10 or 20 μM supplied every 2nd day for 21 days. GW 0427 (standard PPAR ligand as positive control) was delivered by the same regimen on every plate to account for experimental variation.
Plates were washed twice with ice-cold PBS and incubated in 50 mM Tris-HCl (pH 7.6). The cells were treated with 2% Alizarin Red S (pH 4.2) for 10 min and then washed with distilled water. Stained cells were visualized by phase-contrast microscopy to determine cell morphology and to verify the presence of mineralized nodules (red images). The intensities of the images were assessed by Image-Pro Analyzer (Media Cybernetics, Inc., Bethesda, Md.).

SMILES | osteogenic formation from MSCs [1] | profile of fat (AD) versus osteogenic (OS) effects during dose progression (bone should predominate) ([1]; MSC assay) | further results
Cc1nc(-c2ccccc2)sc1CCOc1ccc(C=CC(=O)O)cc1 [BK-3-51, 4-[[4-Methyl-2-phenylthiazol-5-yl]methyl]methoxycinnamic Acid] | – | – | melting point: 209 to 211 °C
Cc1nc(-c2ccc(C(F)(F)F)cc2)sc1CNc1ccc(C=CC(=O)O)cc1 [BK-4-03, 4-[N-[5-Methylene-4-methyl-2-[4-(trifluoromethyl)phenyl]thiazole]]aminocinnamic Acid] | Increased osteogenic formation | – | –
Cc1nc(-c2ccc(C(F)(F)F)cc2)sc1CSc1ccc(C=CC(=O)O)cc1 [BK-4-04, 4-Thio-[5-methylene-4-methyl-2-[4-(trifluoromethyl)phenyl]thiazole]cinnamic Acid] | Increased osteogenic formation | – | –
Cc1nc(-c2ccc(C(F)(F)F)cc2)sc1CN(C)c1ccc(C=CC(=O)O)cc1 [BK-4-15, 4-[N-Methyl-N-[5-methylene-4-methyl-2-[4-(trifluoromethyl)phenyl]thiazole]]aminocinnamic Acid] | Increased osteogenic formation | most preferred profile | –
Cc1nc(-c2ccc(C(F)(F)F)c(F)c2)sc1CNc1ccc(C=CC(=O)O)cc1 [BK-4-30, 4-[N-[5-methylene-4-methyl-2-[3-fluoro-4-(trifluoromethyl)phenyl]thiazole]]aminocinnamic Acid] | – | not as suitable | –
Cc1cc(SCc2sc(-c3ccc(C(F)(F)F)c(F)c3)nc2C)ccc1OCC(=O)O [GW0742, reference compound] | – | initially demonstrates such a preference | OS activity as dose range continued to 10 and 20 uM ([1]; MSC assay, 10 and 20 uM, estimated, averaged effects): decreased
Cc1nc(-c2ccc(C(F)(F)F)c(F)c2)sc1COc1ccc(C=CC(=O)O)cc1 [JM-4-57, 4-[Oxo-[5-methylene-4-methyl-2-[3-fluoro-4-(trifluromethyl)phenyl]thiazole]]cinnamic Acid] | Increased osteogenic formation | – | concentration at which osteogenic activity peaks ([1]; MSCs, 21 days, doses 1-20 μM): 10 µM
